Measurements as given in patent US8440789B2, “Pharmaceutical and/or cosmetic composition containing an active antioxydant principle and cell energy activator” (Societe d'Extraction des Principes Actifs (Vincience), priority 2007, dated 2013).
Ends that are not written are not given here.

Legend:
Assay type in all cases: cell-based
dermal fibroblasts [1] = assay: Synthesis of intracellular ATP (ATP Bioluminescence Assay Kit HS II); settings: 1% solution of a 50 ppm solution of peptide, compared to the untreated cells
Experimental: The goal of this study is to determine the influence of the peptide SEQ ID no 2 on the synthesis of ATP.
This study was conducted using an “ATP Bioluminescence Assay Kit HS II” Kit (Roche Applied Science):
The dermal fibroblasts are treated with a 1% solution, a solution a 50 ppm, containing the peptide SEQ ID no 2, representative of the family of peptides according to the invention, for a period lasting from 1 to 3 hours. At the end of the incubation period, the wells are emptied of their medium and rinsed with 2 ml of cold PBS before adding 250 μl of a lysis buffer supplied by the kit. The cells of each well are then scrapped, then collected in 14 ml tubes. Each well is rinsed with 2×500 μl of cold PBS and everything is against collected the respective tubes. Beginning with these samples, a 1/12000th dilution is done in cold PBS before each reading. The dosage of ATP is done on these samples: 50 μL of this dilution is placed in a luma basin and 50 μl of luminol are added. After 10 seconds, the luminescence read is triggered. The values are standardized with respect to the quantity of proteins for each sample. The measures are done using an apparatus: the Biocounter M2010A LUMAC®/3M.

dermal fibroblasts [2] = assay: Protection against oxidative damage: carbonylation of proteins (EIA/ELISA with DNP); settings: for decrease in carbonylation: peptide 1% solution at 50 ppm, 72 hours before, during, 24 hours after stress
Text: The goal of this study is to determine the protector effect of the peptide SEQ ID no 1 with respect to dermal fibroblasts subjected to oxidative stress caused by UV rays or hydrogen peroxide (H2O2). To evaluate the oxidative damage suffered by the cells, measurements of the carbonylation of the proteins was done.
The carbonylation of proteins is the result of the oxidative splitting of proteins or oxidation of the arginine residues, lysine, proline or threonine. The dosage of the carbonylation of proteins is done using an EIA (Enzyme Immuno Assay) technique.
Fibroblasts in culture were placed in the presence of the peptide SEQ ID no 1 in a 1% solution, at 50 ppm, 72 hours before, during, and also 24 hours after the oxidative stress (UVB irradiation of 50 mJ/cm^2 or treatment par 2 mM of H2O2). untreated controls not subjected to oxidative stress are done.
The degree of carbonylation consists in the use of DNP (dinitrophenyl) which has the property to se fixer specifically on these carbonyl groups of the proteins. The fixed DNP is then assayed using an ELISA method, thanks to an anti-DNP antibody linked to peroxydase. A range of BSA (bovine albumin serum) oxidized (with a known concentration of carbonyl groups) is used for calibration.

Biopsies of human skin = assay: Protection against stress induced by glycation, ex vivo skin culture, H&E histology; settings: methyl glyoxal at 5 or 10 mM; peptide 1% of a 50 ppm mother solution, 24 hours before and 24 hours after glycation agent
Experimental: The goal of this study is to determine the protective effective of the peptide SEQ ID no 1, with respect to ex vivo epidermal culture subjected to stress by a glycation agent.
Biopsies of human skin are maintained in ex vivo culture, treated with a 1% solution, a mother solution of 50 ppm of peptide SEQ ID no 1, 24 hours before, and also 24 hours after the introduction of a glycation agent (methyl glyoxal at 5 or 10 mM). Histology hematoxyline-eosine (H&E) staining makes it possible to evaluate the quality of skin structures.

Row | Substance | increase in the quantity of intracellular ATP (dermal fibroblasts [1]; after 1 hour of culture) | increase in the quantity of intracellular ATP (dermal fibroblasts [1]; after 3 hours of culture) | decrease in carbonylation (dermal fibroblasts [2]; UVB irradiation of 50 mJ/cm^2, compared to irradiated cells not treated) | reduction in the carbonylation of proteins (dermal fibroblasts [2]; cells treated with peptide (1% solution, at 50 ppm), compared to the untreated cells) | decrease in carbonylation (dermal fibroblasts [2]; oxidative stress by 2 mM of H2O2, compared to stressed cells not treated) | evaluation of the skin structures (H&E staining) (Biopsies of human skin)
1 | AVLAGD [peptide SEQ ID No 2] | 17% | 67% |  |  |  | 
2 | Ala-Val-Leu-Ala-Gly-Asp-NH2 (AVLAGD-NH2) [peptide SEQ ID no 1] |  |  | 20% | 30% | 20% | net resistance to cellular stress induced by glycation
